Five molecules from US20100197603A1, “USE OF RGDSPASSKP AND OPTIONALLY ANGIOTENSIN II AS THERAPEUTIC AGENTS IN THE TREATMENT OF EG S. PNEUMONIAE INFECTIONS” (priority 2007, published 2010) can be followed below.

The test system of one assay is HIV-1IIIB. Kind of assay: HIV-1 antiviral assay in CEM-SS cells (MTS readout).
The test system of a further assay is Streptococcus pneumoniae. Kind of assay: Streptococcus pneumoniae growth assay. Type of assay: cell-based. To be noted: 10 micrograms per ml; 5×10^5 CFU/mL; read visually.
For assay [1], the system named is Primary Human endothelial cells (HUVEC). Kind of assay: Endothelial cell migration assay. Type of assay: cell-based. To be noted: 10 micrograms per ml, 22 hours.
The next assay concerns HCMV strain AD169. Description: HCMV plaque formation assay in MRC-5 cells. Conditions: for inhibition of HCMV plaque formation as compared to the virus control: 10 micrograms per ml, 7-10 days.
Another assay deals with murine spleen cells. Kind of assay: Th1/Th2 cytokine profiling assay (Ovalbumin-restimulated spleen cells, CBA kit). The assay is classed as cell-based, Balb/c mice. Conditions: 10 micrograms per ml, Ovalbumin restimulation, 72 hours.
The test system of assay [2] is hepatitis B virus (HBV) ayw strain. Kind of assay: HBV experimental assay system (HepG2-2.2.15, TaqMan PCR of secreted HBV DNA). The assay is classed as cell-based. To be noted: 10 micrograms per ml, six days, HBV DNA by TaqMan PCR. The source says:
HepG2-2.2.15 is a stable cell line containing the hepatitis B virus (HBV) ayw strain genome (ATCC Cat. No. CRL-11997). Antiviral compounds blocking any late step of viral replication such as transcription, translation, pregenome encapsidation, reverse transcription, particle assembly and release can be identified and characterized using this cell line. In this assay, an active compound will reduce the production of secreted HBV from cells, measured by utilizing real time quantitative PCR (TaqMan) assay to directly and accurately measure HBV DNA copies.
HepG2-2.2.15 cells were plated in 96-well microtiter plates. After 16-24 hours the confluent monolayer of HepG2-2.2.15 cells was washed and the medium was replaced with complete medium containing test peptides—10 micrograms per ml—in duplicate. […] Six days following the initial administration of the peptides, the cell culture supernatants was collected, treated with pronase and DNAse and then used in a real-time quantitative TaqMan PCR assay. The PCR-amplified HBV DNA was detected in real-time by monitoring increases in fluorescence signals that result from the exonucleolytic degradation of a quenched fluorescence probe molecule that hybridizes to the amplified HBV DNA. […] Antiviral activity was calculated from the reduction in HBV DNA levels (% virus control). […]
(Real-time PCR tracks product formation cycle by cycle.)

A further assay has as its system HUVEC. Kind of assay: Endothelial tube formation assay. The assay is classed as cell-based, human. Conditions: 10 micrograms per ml, 20 hours.

Where no end group is shown, it is not given here.

On to `CC(C)(C)NC(=O)[C@@H]1CN(Cc2cccnc2)CCN1C[C@@H](O)C[C@@H](Cc1ccccc1)C(=O)N[C@H]1c2ccccc2C[C@H]1O` [indinavir], for which the “antiviral activity of positive control compounds (HIV-1)” value in the assay with HIV-1IIIB is on record as “expected levels of antiviral activity”.
“Asp-Arg-Val-Tyr-Ile-His-Pro-Phe-OH (DRVYIHPF-OH) [Peptide 2]”: in the assay on Streptococcus pneumoniae, the “inhibition of the growth of Streptococcus pneumoniae” value is on record as 100%. In addition, in assay [1], the “inhibition of the migration of human endothelial cells” value was 10%. For the same molecule, the “inhibition of HCMV plaque formation as compared to the virus control” value in the assay with HCMV strain AD169 is listed as “did not inhibit”. In addition, in the assay on murine spleen cells, the “change of the production of IL-5” value is listed as “did not significantly change”, the “induction of the production of IFN-γ” value came out at 36.4%, the “induction of the production of IL-2” value is reported as “did not significantly change” and the “induction of the production of IL-4” value worked out at 55%. Further, the “induction of the production of TNF-alpha” value with murine spleen cells is “did not significantly change”. The “inhibition of HBV replication as compared to the virus control infection” value in assay [2] was found to be 43.4%.
On to `Nc1nc(O)c2ncn(COC(CO)CO)c2n1` [Ganciclovir, reference compound], for which, in the assay with HCMV strain AD169 (positive control), the “antiviral activity of positive control compound (HCMV)” value is “expected levels of antiviral activity”.
For `Cc1cn([C@H]2C[C@H](N=[N+]=[N-])[C@@H](CO)O2)c(=O)[nH]c1=O` [AZT], the “antiviral activity of positive control compounds (HIV-1)” value in the assay with HIV-1IIIB is reported as “expected levels of antiviral activity”.
For “Arg-Gly-Asp-Ser-Pro-Ala-Ser-Ser-Lys-Pro-OH (RGDSPASSKP-OH) [Peptide 1]”, in the assay with Streptococcus pneumoniae, the “inhibition of the growth of Streptococcus pneumoniae” value was determined as 100%. In addition, the “inhibition of the migration of human endothelial cells” value in assay [1] amounted to 2%. The “inhibition of HCMV plaque formation as compared to the virus control” value with HCMV strain AD169 is reported as “did not inhibit”. Also, in the assay on murine spleen cells, the “change of the production of IL-5” value is “did not significantly change”, the “induction of the production of IFN-γ” value was 24.5%, the “induction of the production of IL-2” value is given as 134.2% and the “induction of the production of IL-4” value stood at 132.5%. Besides, the “induction of the production of TNF-alpha” value in the assay on murine spleen cells was found to be 34.0%. For the same molecule, the “inhibition of the tube formation of human endothelial cells” value in the assay on HUVEC is reported as 54%. Also, the “inhibition of HBV replication as compared to the virus control infection” value in assay [2] is recorded as 57.8%.
